Where a SMILES comes first, the peptide text is derived from it. [ ]: non-standard residue; d: D form.
Test system: spleen cell subsets (cell surface antigens)
Assay: In vivo/ex vivo immunophenotyping in the spleen, mice treated 4 consecutive days
Set-up: species or system C57BL/6 mice
Method: C57BL.backslash.6 mice are treated with 0, 50, 100, 200, and 300 mg/kg of drug (in saline) for 4 consecutive days. Blood is taken by cardiac puncture on day 5, and the lymphocytes are isolated from spleen in the following manner:
The spleen is aseptically removed and mashed by pressing against a steel strainer with a rubber plunger. The cell suspension is separated from the clumps by letting them settle at the bottom of the tube. The cell suspension is then separated on a Lymphocyte M layer and the interface is recovered and resuspended in media.
1. Immunophenotyping (blood and spleen)
Cell immunophenotyping is performed on blood and spleen. The following cell surface antigens are analyzed:
CD4 (T helper/inducer, binds class II-restricted T cells);
CD8 (cytotoxic T cells, CTL adhesion);
MAC-1 (monocyte/macrophage);
NK (natural killer cells);
CD45 (all leukocytes, protein tyrosine phosphatase).

With `NCCCC[C@@H](N)C(=O)N[C@@H](CC(N)=O)C(=O)N1CCC[C@H]1C(=O)N[C@@H](Cc1ccc(O)cc1)C(=O)O` [PEPTIDE #5, H-(D-Lys)-Asn-Pro-Tyr-OH] (H-[dK]NPY-OH) the “TCR(T) cell subset, relative percentage, MEAN” value (100 mg/kg, first assay) was 39.83, the “CD4+ CD8+ cell subset, relative percentage, MEAN” value (100 mg/kg, second assay) was 0.53 and the “CD4+ CD8- cell subset, relative percentage, MEAN” value (100 mg/kg, second assay) was 31.78. The “CD4+ CD11b+ cell subset, relative percentage, MEAN” value (100 mg/kg, second assay) was 0.33, the “CD4+ CD11b- cell subset, relative percentage, MEAN” value (100 mg/kg, second assay) was 14.65 and the “CD4- CD8+ cell subset, relative percentage, MEAN” value (100 mg/kg, second assay) was 4.68. The “CD4- CD8- cell subset, relative percentage, MEAN” value (100 mg/kg, second assay) was 63.03, the “CD4- CD11b+ cell subset, relative percentage, MEAN” value (100 mg/kg, second assay) was 3.53 and the “CD4- CD11b- cell subset, relative percentage, MEAN” value (100 mg/kg, second assay) was 81.53. For the same molecule, the “CD45+ CD4+ cell subset, relative percentage, MEAN” value (100 mg/kg, second assay) was 26.40, the “CD45+ CD4- cell subset, relative percentage, MEAN” value (100 mg/kg, second assay) was 50.20 and the “CD45+ CD8+ cell subset, relative percentage, MEAN” value (100 mg/kg, second assay) was 4.80. The “CD45+ CD8- cell subset, relative percentage, MEAN” value (100 mg/kg, second assay) was 73.48, the “CD45- CD4+ cell subset, relative percentage, MEAN” value (100 mg/kg, second assay) was 6.83 and the “CD45- CD4- cell subset, relative percentage, MEAN” value (100 mg/kg, second assay) was 16.60. For the same molecule, the “CD45- CD8+ cell subset, relative percentage, MEAN” value (100 mg/kg, second assay) was 0.10, the “CD45- CD8- cell subset, relative percentage, MEAN” value (100 mg/kg, second assay) was 21.68 and the “Ly5(B) cell subset, relative percentage, MEAN” value (100 mg/kg, second assay) was 48.28. For the same molecule, the “NK+ CD3+ cell subset, relative percentage, MEAN” value (100 mg/kg, second assay) was 2.25, the “NK+ CD3- cell subset, relative percentage, MEAN” value (100 mg/kg, second assay) was 4.10 and the “NK- CD3+ cell subset, relative percentage, MEAN” value (100 mg/kg, second assay) was 28.65. The “NK- CD3- cell subset, relative percentage, MEAN” value (100 mg/kg, second assay) was 65.05, the “TCR(T) cell subset, relative percentage, MEAN” value (100 mg/kg, second assay) was 40.33 and the “CD4+ CD8+ cell subset, relative percentage, MEAN” value (200 mg/kg, first assay) was 0.63. The “CD4+ CD8- cell subset, relative percentage, MEAN” value (200 mg/kg, first assay) was 33.73, the “CD4+ CD11b+ cell subset, relative percentage, MEAN” value (200 mg/kg, first assay) was 1.00 and the “CD4+ CD11b- cell subset, relative percentage, MEAN” value (200 mg/kg, first assay) was 22.65. The “CD4- CD8+ cell subset, relative percentage, MEAN” value (200 mg/kg, first assay) was 5.68, the “CD4- CD8- cell subset, relative percentage, MEAN” value (200 mg/kg, first assay) was 60.00 and the “CD4- CD11b+ cell subset, relative percentage, MEAN” value (200 mg/kg, first assay) was 3.58. The “CD4- CD11b- cell subset, relative percentage, MEAN” value (200 mg/kg, first assay) was 72.00, the “CD45+ CD4+ cell subset, relative percentage, MEAN” value (200 mg/kg, first assay) was 21.18 and the “CD45+ CD4- cell subset, relative percentage, MEAN” value (200 mg/kg, first assay) was 54.03. The “CD45+ CD8+ cell subset, relative percentage, MEAN” value (200 mg/kg, first assay) was 5.28, the “CD45+ CD8- cell subset, relative percentage, MEAN” value (200 mg/kg, first assay) was 64.83 and the “CD45- CD4+ cell subset, relative percentage, MEAN” value (200 mg/kg, first assay) was 14.33. The “CD45- CD4- cell subset, relative percentage, MEAN” value (200 mg/kg, first assay) was 10.48, the “CD45- CD8+ cell subset, relative percentage, MEAN” value (200 mg/kg, first assay) was 0.55 and the “CD45- CD8- cell subset, relative percentage, MEAN” value (200 mg/kg, first assay) was 29.35. For the same molecule, the “Ly5(B) cell subset, relative percentage, MEAN” value (200 mg/kg, first assay) was 59.50, the “NK+ CD3+ cell subset, relative percentage, MEAN” value (200 mg/kg, first assay) was 1.95 and the “NK+ CD3- cell subset, relative percentage, MEAN” value (200 mg/kg, first assay) was 3.88. The “NK- CD3+ cell subset, relative percentage, MEAN” value (200 mg/kg, first assay) was 35.70, the “NK- CD3- cell subset, relative percentage, MEAN” value (200 mg/kg, first assay) was 58.50 and the “TCR(T) cell subset, relative percentage, MEAN” value (200 mg/kg, first assay) was 37.30. For the same molecule, the “CD4+ CD8+ cell subset, relative percentage, MEAN” value (200 mg/kg, second assay) was 0.55, the “CD4+ CD8- cell subset, relative percentage, MEAN” value (200 mg/kg, second assay) was 36.13 and the “CD4+ CD11b+ cell subset, relative percentage, MEAN” value (200 mg/kg, second assay) was 0.33. The “CD4+ CD11b- cell subset, relative percentage, MEAN” value (200 mg/kg, second assay) was 13.10, the “CD4- CD8+ cell subset, relative percentage, MEAN” value (200 mg/kg, second assay) was 4.95 and the “CD4- CD8- cell subset, relative percentage, MEAN” value (200 mg/kg, second assay) was 58.40. For the same molecule, the “CD4- CD11b+ cell subset, relative percentage, MEAN” value (200 mg/kg, second assay) was 3.20, the “CD4- CD11b- cell subset, relative percentage, MEAN” value (200 mg/kg, second assay) was 78.38 and the “CD45+ CD4+ cell subset, relative percentage, MEAN” value (200 mg/kg, second assay) was 29.00. The “CD45+ CD4- cell subset, relative percentage, MEAN” value (200 mg/kg, second assay) was 52.45, the “CD45+ CD8+ cell subset, relative percentage, MEAN” value (200 mg/kg, second assay) was 5.08 and the “CD45+ CD8- cell subset, relative percentage, MEAN” value (200 mg/kg, second assay) was 78.23. The “CD45- CD4+ cell subset, relative percentage, MEAN” value (200 mg/kg, second assay) was 8.63, the “CD45- CD4- cell subset, relative percentage, MEAN” value (200 mg/kg, second assay) was 9.98 and the “CD45- CD8+ cell subset, relative percentage, MEAN” value (200 mg/kg, second assay) was 0.13. The “CD45- CD8- cell subset, relative percentage, MEAN” value (200 mg/kg, second assay) was 16.60, the “Ly5(B) cell subset, relative percentage, MEAN” value (200 mg/kg, second assay) was 46.50 and the “NK+ CD3+ cell subset, relative percentage, MEAN” value (200 mg/kg, second assay) was 2.35. For the same molecule, the “NK+ CD3- cell subset, relative percentage, MEAN” value (200 mg/kg, second assay) was 4.35, the “NK- CD3+ cell subset, relative percentage, MEAN” value (200 mg/kg, second assay) was 32.15 and the “NK- CD3- cell subset, relative percentage, MEAN” value (200 mg/kg, second assay) was 61.10. The “TCR(T) cell subset, relative percentage, MEAN” value (200 mg/kg, second assay) was 47.23.

Reference: patent publication US5980913A, “Peptides having immunomodulatory activity” (Biochem Pharma, Inc., priority 1994, dated 1999)
